The first data set addresses T1, human muscarinic M3 receptors (Homo sapiens, UniProt P20309).
T1 construct: expressed in transfected cells; host or cells: Chinese hamster ovary-K1 (CHO) cells, membrane preparations
Put plainly: biochemical. It is filed as binding.
Settings: not given
The procedure:
The binding of [^3H]-NMS to human muscarinic receptors was performed according to Waelbroek et al (1990), Mol. Pharmacol., 38:267–273. Assays were carried out at 25° C. Membrane preparations from stably transfected Chinese hamster ovary-K1 cells (CHO) expressing the genes for the human muscarinic M3 receptors were used.
For determination of IC50, membrane preparations were suspended in DPBS to a final concentration of 89 μg/ml for the M3 subtype. The membrane suspension wasincubated with the tritiated compound for 60 min. After incubation the membrane fraction was separated by filtration and the bound radioactivity determined. […] At least six concentrations were assayed in duplicate to generate individual displacement curves.
T1 sequence (P20309 whole entry): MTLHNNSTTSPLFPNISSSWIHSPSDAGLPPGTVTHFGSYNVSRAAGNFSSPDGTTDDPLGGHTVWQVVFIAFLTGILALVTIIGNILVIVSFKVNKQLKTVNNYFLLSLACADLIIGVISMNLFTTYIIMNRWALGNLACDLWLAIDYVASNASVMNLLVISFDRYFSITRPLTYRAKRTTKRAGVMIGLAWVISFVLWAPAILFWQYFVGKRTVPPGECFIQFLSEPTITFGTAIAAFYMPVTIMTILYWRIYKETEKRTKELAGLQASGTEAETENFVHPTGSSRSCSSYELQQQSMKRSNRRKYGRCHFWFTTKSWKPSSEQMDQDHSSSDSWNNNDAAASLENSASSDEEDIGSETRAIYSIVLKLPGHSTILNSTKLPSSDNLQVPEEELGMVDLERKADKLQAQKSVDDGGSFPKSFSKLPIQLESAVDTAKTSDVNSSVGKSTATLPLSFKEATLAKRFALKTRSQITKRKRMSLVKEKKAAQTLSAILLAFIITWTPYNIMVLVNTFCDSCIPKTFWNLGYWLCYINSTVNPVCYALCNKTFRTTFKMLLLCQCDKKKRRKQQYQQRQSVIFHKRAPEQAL
The IC50 is the concentration needed to halve the response being measured. Molecule `CCCCCN(C(=O)O[C@H]1CN2CCC1CC2)c1ccccc1` [Example 104, Pentylphenylcarbamic acid 1-azabicyclo[2.2.2]oct-3-(R)yl ester] displayed a concentration for half-maximal inhibition (IC50) of 19 nM.

Staying with this data set, now noted: [3H]-NMS displacement, membranes of CHO-K1 cells expressing human M3, 25° C., 60 min; read-out: BINDING TO RECPTOR M3 (IC50 nM).
Turning to “1-Allyl-3-(R)(phenylthiophen-2-ylmethylcarbamoyloxy)-1-azoniabicyclo [2.2.2]octane; bromide [Example 92]”, the IC50 stood at 11.5 nM. Turning to “3-(R)(Phenylthiophen-3-ylmethylcarbamoyloxy)-1-(2-phenoxyethyl)-1-azonia bicyclo[2.2.2]octane; bromide [Example 136]”, the IC50 was found to be 9 nM. On the same count and under the same terms, with `O=C(O[C@H]1CN2CCC1CC2)N(Cc1ccccc1)c1ccccc1` [Example 1, Benzylphenylcarbamic acid 1-azabicyclo[2.2.2]oct-3-(R)yl ester] the figure was 5 nM; with `O=C(O[C@H]1C[N+]2(CC=Cc3ccccc3)CCC1CC2)N(Cc1ccccc1)c1ccccc1.[Br-]` [Example 5, 3-(R)(Benzylphenylcarbamoyloxy)-1-(3-phenylallyl)-1-azoniabicyclo[2.2.2]octane; bromide], 11.1 nM.

`C=CC[N+]12CCC(CC1)[C@@H](OC(=O)N(Cc1ccccc1)c1ccccc1)C2.[Br-]` [Example 6, 1-Allyl-3-(R)(benzylphenylcarbamoyloxy)-1-azoniabicyclo[2.2.2]octane; bromide]: the IC50 was determined as 18 nM. On the same count and under the same terms, with `O=C(O[C@H]1C[N+]2(CCCc3ccccc3)CCC1CC2)N(Cc1ccccc1)c1ccccc1.[Br-]` [Example 31, 3-(R)(Benzylphenylcarbamoyloxy)-1-(3-phenylpropyl)-1-azoniabicyclo[2.2.2]octane; bromide] the figure was 8 nM; with `O=C(O[C@H]1C[N+]2(CCOc3ccccc3)CCC1CC2)N(Cc1ccccc1)c1ccccc1` [Example 32, 3-(R)(Benzylphenylcarbamoyloxy)-1-(2-phenoxyethyl)-1-azoniabicyclo[2.2.21 octane; bromide], 8 nM; with `CCCCN(C(=O)O[C@H]1C[N+]2(CC=Cc3ccccc3)CCC1CC2)c1ccccc1.[Br-]` [Example 58, 3-(R)(Butylphenylcarbamoyloxy)-1-(3-phenylallyl)-1-azoniabicyclo[2.2.2]octane; bromide], 8 nM. Still for that read-out and setting: with `CCCCN(C(=O)O[C@H]1C[N+]2(CCOc3ccccc3)CCC1CC2)c1ccccc1` [Example 79, 3-(R)(Butylphenylcarbamoyloxy)-1-(2-phenoxyethyl)-1-azoniabicyclo[2.2.2]octane; bromide] the figure was 14 nM. Regarding `O=C(O[C@H]1CN2CCC1CC2)N(Cc1cccs1)c1ccccc1` [Example 82, Phenylthiophen-2-ylmethylcarbamic acid 1-azabicyclo[2.2.2]oct-3-(R)yl ester], the half-maximal inhibitory concentration (IC50) came to 4.5 nM.

With `O=C(O[C@H]1C[N+]2(CCCc3cccs3)CCC1CC2)N(Cc1cccs1)c1ccccc1` [Example 90, 3-(R)(phenylthiophen-2-ylmethylcarbamoyloxy)-1-(3-thiophen-2-ylpropyl)-1-azoniabicyclo[2.2.2]octane; bromide], the IC50 came out at 9.2 nM.

On to `O=C(O[C@H]1C[N+]2(CCOc3ccccc3)CCC1CC2)N(Cc1cccs1)c1ccccc1` [Example 91, 1-(2-Phenoxyethyl)-3-(R)(phenylthiophen-2-ylmethylcarbamoyloxy)-1-azonia bicyclo[2.2.2]octane; bromide], for which the IC50 worked out at 6.8 nM. On the same count and under the same terms, with `O=C(O[C@H]1CN2CCC1CC2)N(Cc1ccsc1)c1ccccc1` [Example 126, Phenylthiophen-3-ylmethylcarbamic acid 1-azabicyclo[2.2.2]oct-3-(R)yl ester] the figure was 8.6 nM; with `O=C(O[C@H]1C[N+]2(CCCc3ccccc3)CCC1CC2)N(Cc1cccs1)Cc1cccs1` [Example 142, 3-(R)(bis-thiophen-2-ylmethylcarbamoyloxy)-1-(3-phenylpropyl)-1-azoniabicyclo [2.2.2]octane; bromide], 17.8 nM; with `O=C(O[C@H]1C[N+]2(CCCc3cccs3)CCC1CC2)N(Cc1cccs1)Cc1cccs1` [Example 146, 3-(R)(bis-thiophen-2-ylmethylcarbamoyloxy)-1-(3-thiophen-2-ylpropyl)-1-azonia bicyclo[2.2.2]octane; bromide], 14.4 nM. The same measure, in the same setting: with `O=C(O[C@H]1CN2CCC1CC2)N(Cc1ccco1)c1ccccc1` [Example 153, Furan-2-ylmethylphenylcarbamic acid 1-azabicyclo[2.2.2]oct-3-(R)yl ester] the figure was 6 nM; with `O=C(O[C@H]1CN2CCC1CC2)N(Cc1ccco1)Cc1ccco1` [Example 156, bis-Furan-2-ylmethylcarbamic acid 1-azabicyclo[2.2.2]oct-3-(R)yl ester], 18 nM.

Test system in another data set: not given
Assay: not given
Settings: not given
By melting point is commonly meant the temperature, or range, at which the solid turns liquid. Regarding `O=C(O[C@H]1C[N+]2(CCc3ccccc3)CCC1CC2)N(Cc1ccccc1)c1ccccc1.[Br-]`, the melting point was 81 °C. Still for that read-out and setting: with `O=C(O[C@@H]1C[N+]2(CCCc3ccccc3)CCC1CC2)N(Cc1ccccc1)c1ccccc1.[Br-]` the figure was 64 °C. On the same count and under the same terms, with `C=CC[N+]12CCC(CC1)[C@@H](OC(=O)N(CCCC)c1ccccc1)C2.[Br-]` the figure was 141 °C; with `CCCCN(C(=O)O[C@H]1C[N+]2(CCc3ccccc3)CCC1CC2)c1ccccc1.[Br-]`, 139 °C. On the same count and under the same terms, with `CCCCN(C(=O)O[C@H]1C[N+]2(CCCc3ccccc3)CCC1CC2)c1ccccc1.[Br-]` the figure was 120 °C.

Consider `O=C(O[C@H]1C[N+]2(CC=Cc3ccccc3)CCC1CC2)N(Cc1ccccc1)c1ccccc1.[Br-]` [Example 5, 3-(R)(Benzylphenylcarbamoyloxy)-1-(3-phenylallyl)-1-azoniabicyclo[2.2.2]octane; bromide], for which the melting point came to 129 °C. Still for that read-out and setting: with `C=CC[N+]12CCC(CC1)[C@@H](OC(=O)N(Cc1ccccc1)c1ccccc1)C2.[Br-]` [Example 6, 1-Allyl-3-(R)(benzylphenylcarbamoyloxy)-1-azoniabicyclo[2.2.2]octane; bromide] the figure was 70 °C; with `O=C(O[C@H]1C[N+]2(CCCc3ccccc3)CCC1CC2)N(Cc1ccccc1)c1ccccc1.[Br-]` [Example 31, 3-(R)(Benzylphenylcarbamoyloxy)-1-(3-phenylpropyl)-1-azoniabicyclo[2.2.2]octane; bromide], 101 °C; with `CCCCN(C(=O)O[C@H]1C[N+]2(CC=Cc3ccccc3)CCC1CC2)c1ccccc1.[Br-]` [Example 58, 3-(R)(Butylphenylcarbamoyloxy)-1-(3-phenylallyl)-1-azoniabicyclo[2.2.2]octane; bromide], 144 °C.
